# Test results reported in patent publication US12605377B2, “Methods of treating fibrosis” (Endeavor Biomedicines, Inc., priority 2020, dated 2026).
# Where a name gives a salt, the structure may show the parent alone. Read-outs that look alike come from different tables or passages of the source.
# Columns and labels:
# kidney fibrosis = settings: in vivo; cited from earlier work
# Brain Tumor mGli1 = experiment: PK/PD GIi1 expression in Ptch−/+ × p53−/− transgenic tumor model (qRT-PCR TaqMan); format: in vivo, mouse; settings: PTCH Tg, single oral dose
# Description: (§1) Following the predetermined dosing period, surrogate tissues (lung, skin, and cerebellum) from Balb/C mouse and tumor from Ptch^−/+×p53^−/− transgenic tumor model were harvested, processed, and evaluated for GIi1 expression levels using a quantitative reverse transcription polymerase chain reaction TaqMan® assay. […] Given the parallel PD effects, skin GIi1 is an appropriate PD surrogate for lung tissue GIi1.
# [1] = system: Hh signaling activity in mouse C3H10T½ cells; experiment: Gli-Luciferase activity in C3H10T½ cells stimulated with SHh-CM; format: cell-based; settings: n=8, geometric mean±SE
# mGli1 = experiment: PK/PD GIi1 expression in Balb/c surrogate tissues after single oral dose (qRT-PCR TaqMan); format: in vivo, Balb/c mouse
# Description: as §1
# [2] = system: Hh signaling activity in human Daoy cells; experiment: GIi1 transcript levels in Daoy tumor cell line stimulated with SHh-CM (branched chain DNA assay); format: cell-based; settings: GIi1 mRNA, n=8, geometric mean±SE
# IPF patients = settings: cited from earlier work; for effect on FVC in clinical trials (FIG. 1): IPF patients, 24 weeks (GLPG1690 12 weeks), vismodegib in combination with pirfenidone
# [3] = cited from earlier work; for predominant AE causing discontinuation: comparator drugs
# oral bioavailability = settings: in vivo
# Description: This molecule has been in over 192 human subjects and developed initially with the intention of treating oncologic indications with a focus on lung cancer and basal cell carcinoma (BCC). Although primarily cancer patients, these studies allowed for a preliminary understanding of dose and tolerability.
# [4] = clinical safety and tolerability (MTD, adverse events, discontinuations)
# Description: (§2) Taldegib was administered to subjects at doses of 50, 100, 200, 400 and 600 mg.
# GIi1 activity = settings: Daoy cells, assay of U.S. Pat. No. 9,000,023; cited from earlier work
# GIi1 mRNA [5] = experiment: GIi1 mRNA inhibition in skin biopsies of clinical subjects; format: in vivo, human
# Description: as §2
# Hh = settings: Zhu et al. 2019; read-out: ID50 for Hh inhibition; cited from earlier work
# [6] = clinical pharmacokinetics; settings: human, in vivo
# [7] = system: α-SMA protein expression (myofibroblasts); experiment: bleomycin-induced pulmonary fibrosis model, anti-α-SMA immunohistochemistry; settings: 5 mg/kg orally daily from day seven, pathology on day 21
# Description: FIG. 4B depicts the percent α-SMA positive area from the individual mice and the mean and standard deviation for the treatment groups.
# A Microsprayer® Aerosolizer was used to perform intratracheal administration of bleomycin. By administering bleomycin via Microsprayer® Aerosolizer, it can be evenly exposed to the lungs and thus, develops a reproducible and uniform pathology.
# Pathology of animals was examined on day 21 of the study.
# [8] = Biopharmaceutics Classification System (BCS) class; format: physicochemical
# IPF = experiment: Phase 2 multi-center study of safety and efficacy in subjects with IPF; format: in vivo, human
# Description: Quantitative (% and mL) and qualitative (improved, same, worse) assessment of lung fibrosis by HRCT will be performed at Screening and Week 12. The Screening HRCT will serve as the baseline for study HRCT assessments.
# GIi1 mRNA [9] = settings: vismodegib at its MTD of 150 mg; cited from earlier work
# [10] = Balb/c, cerebellum, single oral dose
# [11] = after sufficient step-down of dosage, if any
smiles,measurement,setting,value
CC1=C2C[C@H]3[C@@H](CC[C@@H]4C[C@H](NS(C)(=O)=O)CC[C@@]43C)[C@@H]2CC[C@@]2(C1)O[C@@H]1C[C@H](C)CN[C@H]1[C@H]2C [IPI-926],efficacy in treating kidney fibrosis,kidney fibrosis,ineffective
CN(C(=O)c1ccc(F)cc1C(F)(F)F)C1CCN(c2nnc(-c3ccnn3C)c3ccccc23)CC1 [Taladegib hydrochloride],Brain Tumor mGli1 TEC50,Brain Tumor mGli1,63.0 ng/mL
same,Brain Tumor mGli1 TED50,Brain Tumor mGli1,1.0 mg/kg
same,IC50,[1],11.2 ± 5.33 nM
same,Cerebellum mGli1 TEC50,mGli1; [10],230 ng/mL
same,Cerebellum mGli1 TED50,mGli1; [10],2.2 mg/kg
same,Lung mGli1 TEC50,"mGli1; Balb/c, lung, single oral dose",264 ± 114 ng/mL
same,Lung mGli1 TED50,"mGli1; Balb/c, lung, single oral dose",2.6 ± 0.6 mg/kg
same,Skin mGli1 TEC50,"mGli1; Balb/c, skin, single oral dose",84 ng/mL
same,Skin mGli1 TED50,"mGli1; Balb/c, skin, single oral dose",1.1 mg/kg
same,duration of sustained target inhibition,"mGli1; time course, single oral dose 8 mg/kg",at least 24 hours
same,IC50,[2],2.22 ± 1.14 nM
CC1=C2C[C@H]3[C@@H](CC=C4C[C@@H](O)CC[C@@]43C)[C@@H]2CC[C@]12O[C@@H]1C[C@H](C)CN[C@H]1[C@H]2C [cyclopamine],efficacy in treating kidney fibrosis,kidney fibrosis,ineffective
COC(=O)c1ccc2c(c1)NC(=O)/C2=C(\Nc1ccc(N(C)C(=O)CN2CCN(C)CC2)cc1)c1ccccc1 [nintedanib],effect on FVC in clinical trials (FIG. 1),IPF patients,only able to slow the deterioration of FVC
same,predominant AE causing discontinuation,[3],diarrhea
Cc1ccc(=O)n(-c2ccccc2)c1 [pirfenidone],effect on FVC in clinical trials (FIG. 1),IPF patients,only able to slow the deterioration of FVC
same,predominant AE causing discontinuation,[3],nausea
CN(C(=O)c1ccc(F)cc1C(F)(F)F)C1CCN(c2nnc(-c3ccnn3C)c3ccccc23)CC1 [taladegib],bioavailability,oral bioavailability,72 to 91%
same,most commonly observed adverse events (AEs),"[4]; human, in vivo","nausea, diarrhea, dysgeusia, fatigue, decreased appetite, alopecia, vomiting, muscle spasm, constipation, weight decrease, and headache"
same,occurrence of muscle spasms,"[4]; human, in vivo",40%
same,predominant AE causing discontinuation,"[4]; human, in vivo",no prevalent AE
same,clinically established MTD,[4]; taladegib,400 mg
same,IC50,GIi1 activity,~2.4 nM
same,pharmacological activity (BED: inhibition >50%),"GIi1 mRNA [5]; all dose levels tested, 50-600 mg",pharmacologically active at all dose levels tested
same,inhibition of GIi1 mRNA,GIi1 mRNA [5]; dose 50 mg,greater than 80%
same,GIi1 mRNA inhibition in skin,GIi1 mRNA [5]; dose 400 mg (MTD),> 85%
same,inhibition of Gli in skin biopsies,"GIi1 mRNA [5]; doses of 50, 100, 200, 400 and 600 mg, most patients",> 80%
same,IC50,Hh,2.26 nM
same,half-life,"[6]; across all doses, estimated, read-out: mean half-life (t½) (converted)",~16 h
same,Tmax,[6]; read-out: median tmax,2 h
same,reduction of α-SMA protein expression,[7],approximately 40%
same,BCS class,[8],"class II (high permeability, low solubility)"
same,serious drug-related adverse events,IPF; [11],did not experience serious drug-related adverse events
same,efficacy endpoints,IPF; at 12 weeks,stabilization or improvement
same,dose limiting toxicities,"IPF; at 12 weeks, starting at 200 mg/day",no or limited dose limiting toxicities are observed
same,durability of the response,IPF; at 18 weeks,durability of the response is observed
same,serious drug-related adverse events,lung fibrosis; [11],did not experience serious drug-related adverse events
same,efficacy endpoints,"lung fibrosis; at 24 weeks, starting at 200 mg daily",stabilization or improvement
CS(=O)(=O)c1ccc(C(=O)Nc2ccc(Cl)c(-c3ccccn3)c2)c(Cl)c1 [vismodegib],GIi1 mRNA inhibition,GIi1 mRNA [9],less than 50%
same,effect on FVC in clinical trials (FIG. 1),IPF patients,substantial increase in FVC
same,increase in Forced Vital Capacity (FVC),"IPF patients; single arm IPF study, combination with pirfenidone, after six months, average",approximately 100 mL
same,predominant AE causing discontinuation,[3],muscle spasms
same,discontinuation of participants,"[3]; single arm IPF study, combination with pirfenidone, severe muscle spasms",over 40%
same,"Muscle Spasm Adverse Event Frequency, Grade 1","[3]; vismodegib 150, 104 patients",43% (45)
same,"Muscle Spasm Adverse Event Frequency, Grade 2","[3]; vismodegib 150, 104 patients",22% (23)
same,"Muscle Spasm Adverse Event Frequency, Grade 3","[3]; vismodegib 150, 104 patients",6% (7)
same,"Muscle Spasm Adverse Event Frequency, Grade 4","[3]; vismodegib 150, 104 patients",0%
same,MTD,[3]; vismodegib,150 mg
CCc1nc2c(C)cc(N3CCN(CC(=O)N4CC(O)C4)CC3)cn2c1N(C)c1nc(-c2ccc(F)cc2)c(C#N)s1 [zirtaxestat],effect on FVC in clinical trials (FIG. 1),IPF patients,small increase in FVC
